{"source": "paper PMC10177727", "about": "(Clinical Drug Investigation, 2023)", "key": {"[1]": {"assay": "Safety and tolerability: treatment-emergent adverse events", "assay_type": "in vivo, healthy Japanese adult participants"}, "[2]": {"details": "ensitrelvir; cited from earlier work"}, "[3]": {"target": "CYP3A (Homo sapiens, UniProt P08684)", "sequence (P08684 2-503)": "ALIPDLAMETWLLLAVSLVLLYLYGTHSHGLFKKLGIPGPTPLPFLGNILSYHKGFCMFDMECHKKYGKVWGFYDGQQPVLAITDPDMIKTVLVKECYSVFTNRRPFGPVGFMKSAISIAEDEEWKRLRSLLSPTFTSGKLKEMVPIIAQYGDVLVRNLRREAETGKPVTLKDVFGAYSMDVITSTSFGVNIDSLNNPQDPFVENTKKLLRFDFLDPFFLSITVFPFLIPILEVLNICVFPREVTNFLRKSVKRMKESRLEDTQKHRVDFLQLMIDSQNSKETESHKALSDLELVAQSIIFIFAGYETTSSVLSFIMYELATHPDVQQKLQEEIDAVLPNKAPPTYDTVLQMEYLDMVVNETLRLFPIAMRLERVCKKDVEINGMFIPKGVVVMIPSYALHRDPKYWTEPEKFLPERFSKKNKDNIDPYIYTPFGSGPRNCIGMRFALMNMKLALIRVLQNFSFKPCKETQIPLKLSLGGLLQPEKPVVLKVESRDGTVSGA", "details": "pre-clinical in vitro findings"}, "[4]": {"details": "Ensitrelvir 375/125 mg + midazolam, N = 14"}, "[5]": {"details": "Ensitrelvir 375/125 mg + midazolam, N = 14, listed as ensitrelvir"}, "[6]": {"details": "Ensitrelvir 750/250 mg + dexamethasone, N = 14"}, "[7]": {"details": "Ensitrelvir 750/250 mg + dexamethasone, N = 14, listed as ensitrelvir"}, "[8]": {"details": "Ensitrelvir 750/250 mg + prednisolone, N = 14"}}}
{"compound": "Cn1cnc(Cn2c(=O)[nH]/c(=N\\c3cc4cn(C)nc4cc3Cl)n(Cc3cc(F)c(F)cc3F)c2=O)n1", "note": "[Ensitrelvir, Ensitrelvir fumaric acid]", "values": [{"measurement": "Arthropod sting, Events", "setting": "[1]; [4]", "value": 1}, {"measurement": "Arthropod sting, N (%)", "setting": "[1]; [4]", "value": "1 (7.1)"}, {"measurement": "Blood triglycerides increased, Events", "setting": "[1]; [4]", "value": 1}, {"measurement": "Blood triglycerides increased, N (%)", "setting": "[1]; [4]", "value": "1 (7.1)"}, {"measurement": "Blood triglycerides increased, events Related to ensitrelvir", "setting": "[1]; [4]", "value": 1}, {"measurement": "Diarrhea, Events", "setting": "[1]; [4]", "value": 1}, {"measurement": "Diarrhea, N (%)", "setting": "[1]; [4]", "value": "1 (7.1)"}, {"measurement": "Gastrointestinal disorders, Events", "setting": "[1]; [4]", "value": 1}, {"measurement": "Gastrointestinal disorders, N (%)", "setting": "[1]; [4]", "value": "1 (7.1)"}, {"measurement": "High-density lipoprotein decreased, Events", "setting": "[1]; [4]", "value": 8}, {"measurement": "High-density lipoprotein decreased, N (%)", "setting": "[1]; [4]", "value": "8 (57.1)"}, {"measurement": "High-density lipoprotein decreased, events Related to ensitrelvir", "setting": "[1]; [4]", "value": 8}, {"measurement": "Injury, poisoning and procedural complications, Events", "setting": "[1]; [4]", "value": 1}, {"measurement": "Injury, poisoning and procedural complications, N (%)", "setting": "[1]; [4]", "value": "1 (7.1)"}, {"measurement": "Investigations, Events", "setting": "[1]; [4]", "value": 9}, {"measurement": "Investigations, N (%)", "setting": "[1]; [4]", "value": "8 (57.1)"}, {"measurement": "Investigations, events Related to ensitrelvir", "setting": "[1]; [4]", "value": 9}, {"measurement": "Nervous system disorders, Events", "setting": "[1]; [4]", "value": 10}, {"measurement": "Nervous system disorders, N (%)", "setting": "[1]; [4]", "value": "9 (64.3)"}, {"measurement": "Nervous system disorders, events Related to ensitrelvir", "setting": "[1]; [4]", "value": 2}, {"measurement": "Participants with any TEAE, Events", "setting": "[1]; [4]", "value": 21}, {"measurement": "Participants with any TEAE, N (%)", "setting": "[1]; [4]", "value": "11 (78.6)"}, {"measurement": "Participants with any TEAE, events Related to ensitrelvir", "setting": "[1]; [4]", "value": 11}, {"measurement": "Somnolence, Events", "setting": "[1]; [4]", "value": 10}, {"measurement": "Somnolence, N (%)", "setting": "[1]; [4]", "value": "9 (64.3)"}, {"measurement": "Somnolence, events Related to ensitrelvir", "setting": "[1]; [4]", "value": 2}, {"measurement": "Arthropod sting, N (%)", "setting": "[1]; [5]", "value": 1}, {"measurement": "Blood triglycerides increased, N (%)", "setting": "[1]; [5]", "value": 1}, {"measurement": "Diarrhea, N (%)", "setting": "[1]; [5]", "value": 1}, {"measurement": "High-density lipoprotein decreased, N (%)", "setting": "[1]; [5]", "value": 8}, {"measurement": "Participants with any TEAE, N (%)", "setting": "[1]; [5]", "value": 11}, {"measurement": "Somnolence, N (%)", "setting": "[1]; [5]", "value": 9}, {"measurement": "Atrioventricular block, Events", "setting": "[1]; [6]", "value": 1}, {"measurement": "Atrioventricular block, N (%)", "setting": "[1]; [6]", "value": "1 (7.1)"}, {"measurement": "Blood triglycerides increased, Events", "setting": "[1]; [6]", "value": 4}, {"measurement": "Blood triglycerides increased, N (%)", "setting": "[1]; [6]", "value": "4 (28.6)"}, {"measurement": "Blood triglycerides increased, events Related to ensitrelvir", "setting": "[1]; [6]", "value": 3}, {"measurement": "Cardiac disorders, Events", "setting": "[1]; [6]", "value": 1}, {"measurement": "Cardiac disorders, N (%)", "setting": "[1]; [6]", "value": "1 (7.1)"}, {"measurement": "Dizziness, Events", "setting": "[1]; [6]", "value": 1}, {"measurement": "Dizziness, N (%)", "setting": "[1]; [6]", "value": "1 (7.1)"}, {"measurement": "Dizziness, events Related to ensitrelvir", "setting": "[1]; [6]", "value": 1}, {"measurement": "Headache, Events", "setting": "[1]; [6]", "value": 1}, {"measurement": "Headache, N (%)", "setting": "[1]; [6]", "value": "1 (7.1)"}, {"measurement": "Headache, events Related to ensitrelvir", "setting": "[1]; [6]", "value": 1}, {"measurement": "High-density lipoprotein decreased, Events", "setting": "[1]; [6]", "value": 5}, {"measurement": "High-density lipoprotein decreased, N (%)", "setting": "[1]; [6]", "value": "5 (35.7)"}, {"measurement": "High-density lipoprotein decreased, events Related to ensitrelvir", "setting": "[1]; [6]", "value": 5}, {"measurement": "Investigations, Events", "setting": "[1]; [6]", "value": 9}, {"measurement": "Investigations, N (%)", "setting": "[1]; [6]", "value": "7 (50.0)"}, {"measurement": "Investigations, events Related to ensitrelvir", "setting": "[1]; [6]", "value": 8}, {"measurement": "Nervous system disorders, Events", "setting": "[1]; [6]", "value": 2}, {"measurement": "Nervous system disorders, N (%)", "setting": "[1]; [6]", "value": "1 (7.1)"}, {"measurement": "Nervous system disorders, events Related to ensitrelvir", "setting": "[1]; [6]", "value": 2}, {"measurement": "Papule, Events", "setting": "[1]; [6]", "value": 1}, {"measurement": "Papule, N (%)", "setting": "[1]; [6]", "value": "1 (7.1)"}, {"measurement": "Papule, events Related to ensitrelvir", "setting": "[1]; [6]", "value": 1}, {"measurement": "Participants with any TEAE, Events", "setting": "[1]; [6]", "value": 13}, {"measurement": "Participants with any TEAE, N (%)", "setting": "[1]; [6]", "value": "9 (64.3)"}, {"measurement": "Participants with any TEAE, events Related to ensitrelvir", "setting": "[1]; [6]", "value": 11}, {"measurement": "Skin and subcutaneous tissue disorders, Events", "setting": "[1]; [6]", "value": 1}, {"measurement": "Skin and subcutaneous tissue disorders, N (%)", "setting": "[1]; [6]", "value": "1 (7.1)"}, {"measurement": "Skin and subcutaneous tissue disorders, events Related to ensitrelvir", "setting": "[1]; [6]", "value": 1}, {"measurement": "Atrioventricular block, N (%)", "setting": "[1]; [7]", "value": 1}, {"measurement": "Blood triglycerides increased, N (%)", "setting": "[1]; [7]", "value": 4}, {"measurement": "Dizziness, N (%)", "setting": "[1]; [7]", "value": 1}, {"measurement": "Headache, N (%)", "setting": "[1]; [7]", "value": 1}, {"measurement": "Papule, N (%)", "setting": "[1]; [7]", "value": 1}, {"measurement": "Participants with any TEAE, N (%)", "setting": "[1]; [7]", "value": 9}, {"measurement": "Atrioventricular block, Events", "setting": "[1]; [8]", "value": 0}, {"measurement": "Atrioventricular block, N (%)", "setting": "[1]; [8]", "value": 0}, {"measurement": "Atrioventricular block, events Related to ensitrelvir", "setting": "[1]; [8]", "value": 0}, {"measurement": "Blood triglycerides increased, Events", "setting": "[1]; [8]", "value": 0}, {"measurement": "Blood triglycerides increased, N (%)", "setting": "[1]; [8]", "value": 0}, {"measurement": "Blood triglycerides increased, events Related to ensitrelvir", "setting": "[1]; [8]", "value": 0}, {"measurement": "Cardiac disorders, Events", "setting": "[1]; [8]", "value": 0}, {"measurement": "Cardiac disorders, N (%)", "setting": "[1]; [8]", "value": 0}, {"measurement": "Cardiac disorders, events Related to ensitrelvir", "setting": "[1]; [8]", "value": 0}, {"measurement": "Dizziness, Events", "setting": "[1]; [8]", "value": 0}, {"measurement": "Dizziness, N (%)", "setting": "[1]; [8]", "value": 0}, {"measurement": "Dizziness, events Related to ensitrelvir", "setting": "[1]; [8]", "value": 0}, {"measurement": "Headache, Events", "setting": "[1]; [8]", "value": 0}, {"measurement": "Headache, N (%)", "setting": "[1]; [8]", "value": 0}, {"measurement": "Headache, events Related to ensitrelvir", "setting": "[1]; [8]", "value": 0}, {"measurement": "High-density lipoprotein decreased, Events", "setting": "[1]; [8]", "value": 14}, {"measurement": "High-density lipoprotein decreased, N (%)", "setting": "[1]; [8]", "value": "14 (100.0)"}, {"measurement": "High-density lipoprotein decreased, events Related to ensitrelvir", "setting": "[1]; [8]", "value": 14}, {"measurement": "Investigations, Events", "setting": "[1]; [8]", "value": 14}, {"measurement": "Investigations, N (%)", "setting": "[1]; [8]", "value": "14 (100.0)"}, {"measurement": "Investigations, events Related to ensitrelvir", "setting": "[1]; [8]", "value": 14}, {"measurement": "Nervous system disorders, Events", "setting": "[1]; [8]", "value": 0}, {"measurement": "Nervous system disorders, N (%)", "setting": "[1]; [8]", "value": 0}, {"measurement": "Nervous system disorders, events Related to ensitrelvir", "setting": "[1]; [8]", "value": 0}, {"measurement": "Papule, Events", "setting": "[1]; [8]", "value": 0}, {"measurement": "Papule, N (%)", "setting": "[1]; [8]", "value": 0}, {"measurement": "Papule, events Related to ensitrelvir", "setting": "[1]; [8]", "value": 0}, {"measurement": "Participants with any TEAE, Events", "setting": "[1]; [8]", "value": 14}, {"measurement": "Participants with any TEAE, N (%)", "setting": "[1]; [8]", "value": "14 (100.0)"}, {"measurement": "Participants with any TEAE, events Related to ensitrelvir", "setting": "[1]; [8]", "value": 14}, {"measurement": "Skin and subcutaneous tissue disorders, Events", "setting": "[1]; [8]", "value": 0}, {"measurement": "Skin and subcutaneous tissue disorders, N (%)", "setting": "[1]; [8]", "value": 0}, {"measurement": "Skin and subcutaneous tissue disorders, events Related to ensitrelvir", "setting": "[1]; [8]", "value": 0}, {"measurement": "Participants with any TEAE, N (%)", "setting": "[1]; Ensitrelvir 750/250 mg + prednisolone, N = 14, listed as ensitrelvir", "value": 14}, {"measurement": "serious TEAEs", "setting": "[1]; all cohorts", "value": "no serious TEAEs"}, {"measurement": "tolerability", "setting": "[1]; multiple-dose ensitrelvir with CYP3A substrates", "value": "well tolerated"}, {"measurement": "t1/2,z", "setting": "[2]", "value": "42.2 to 48.1", "unit": "h"}, {"measurement": "reversible inhibitory effect on CYP3A4", "setting": "[3]", "value": "no reversible inhibitory effect"}, {"measurement": "time-dependent inhibition of CYP3A", "setting": "[3]", "value": "time-dependent NADPH-mediated inhibition"}]}
